Reference: patent US11865182B2, “Product and process for employing GC7 (N1-guanyl-1,7-diaminoheptane) based antigen binding conjugates in cancer therapy” (priority 2017, dated 2024)

Test system: bi-lateral subcutaneous tumors derived from 779E cells
Experiment: in-vivo analysis of ADCs cytotoxic effect in subcutaneous mouse model (loss of GFP fluorescence signal, IVIS imaging)
Settings: nude mice, 779E subcutaneous tumors, tail vein injection, after 12 days
Method: After purification via gel chromatography, where the cytotoxicity effect of the drug on the eIF5A positive tumor cell compared to eIF5A negative cells was determined by measuring the loss of fluorescence signal of the GFP tagged tumor cells after administration of the ADC in vivo via tail vein injection in mice using an IVIS Spectrum in vivo imaging system.

Compound: N=C(N)NCCCCCCCN [GC7, N1-guanyl-1,7-diaminoheptane]
- tumor growth inhibition: 0.4%
